Source: ChEMBL document CHEMBL3390836, “Mannich- and LedererManasse-based analogues of the natural product S-(+)-curcuphenol as cancer proliferation and migration inhibitors” (Medchemcomm, 2012)
pIC50: −log10 of the molar value.

Assays:
786-0 = test: Cytotoxicity against human 786-0 cells assessed as cell growth at 10 uM after 48 hrs by SRB assay relative to control; format: functional; details: 786-0, 48 h, read-out: Activity
SK-MEL-2 = test: Cytotoxicity against human SK-MEL-2 cells assessed as cell growth at 10 uM after 48 hrs by SRB assay relative to control; format: functional; details: SK-MEL-2, 48 h, read-out: Activity
KM12 = test: Cytotoxicity against human KM12 cells assessed as cell growth at 10 uM after 48 hrs by SRB assay relative to control; format: functional; details: KM12, 48 h, read-out: Activity
HT-29 = test: Cytotoxicity against human HT-29 cells assessed as cell growth at 10 uM after 48 hrs by SRB assay relative to control; format: functional; details: HT-29, 48 h, read-out: Activity
[1] = Cytotoxicity against human SKOV3 cells assessed as cell growth at 10 uM after 48 hrs by SRB assay relative to control; format: functional; details: SK-OV-3, 48 h, read-out: Activity
SNB-75 = test: Cytotoxicity against human SNB75 cells assessed as cell growth at 10 uM after 48 hrs by SRB assay relative to control; format: functional; details: SNB-75, 48 h, read-out: Activity
[2] = Cytotoxicity against human HCT116 cells assessed as cell growth at 10 uM after 48 hrs by SRB assay relative to control; format: functional; details: HCT-116, 48 h, read-out: Activity
SK-MEL-5 = test: Cytotoxicity against human SK-MEL-5 cells assessed as cell growth at 10 uM after 48 hrs by SRB assay relative to control; format: functional; details: SK-MEL-5, 48 h, read-out: Activity
NCI-H226 = test: Cytotoxicity against human NCI-H226 cells assessed as cell growth at 10 uM after 48 hrs by SRB assay relative to control; format: functional; details: NCI-H226, 48 h, read-out: Activity
CCRF-CEM = test: Cytotoxicity against human CCRF-CEM cells assessed as cell growth at 10 uM after 48 hrs by SRB assay relative to control; format: functional; details: read-out: Activity
M14 = test: Cytotoxicity against human M14 cells assessed as cell growth at 10 uM after 48 hrs by SRB assay relative to control; format: functional; details: M14, 48 h, read-out: Activity
LOX IMVI = test: Cytotoxicity against human LOXIMVI cells assessed as cell growth at 10 uM after 48 hrs by SRB assay relative to control; format: functional; details: read-out: Activity
SF-295 = test: Cytotoxicity against human SF295 cells assessed as cell growth at 10 uM after 48 hrs by SRB assay relative to control; format: functional; details: SF-295, 48 h, read-out: Activity
SK-MEL-28 = test: Cytotoxicity against human SK-MEL-28 cells assessed as cell growth at 10 uM after 48 hrs by SRB assay relative to control; format: functional; details: SK-MEL-28, 48 h, read-out: Activity
[3] = Cytotoxicity against human NCI-ADR-RES cells assessed as cell growth at 10 uM after 48 hrs by SRB assay relative to control; format: functional; details: read-out: Activity
IGROV-1 = test: Cytotoxicity against human IGROV1 cells assessed as cell growth at 10 uM after 48 hrs by SRB assay relative to control; format: functional; details: IGROV-1, 48 h, read-out: Activity
[4] = Cytotoxicity against human UO31 cells assessed as cell growth at 10 uM after 48 hrs by SRB assay relative to control; format: functional; details: UO-31, 48 h, read-out: Activity
MOLT-4 = test: Cytotoxicity against human MOLT4 cells assessed as cell growth at 10 uM after 48 hrs by SRB assay relative to control; format: functional; details: MOLT-4, 48 h, read-out: Activity
SF-539 = test: Cytotoxicity against human SF539 cells assessed as cell growth at 10 uM after 48 hrs by SRB assay relative to control; format: functional; details: SF-539, 48 h, read-out: Activity
A498 = test: Cytotoxicity against human A498 cells assessed as cell growth at 10 uM after 48 hrs by SRB assay relative to control; format: functional; details: A498, 48 h, read-out: Activity
[5] = Cytotoxicity against human OVCAR3 cells assessed as cell growth at 10 uM after 48 hrs by SRB assay relative to control; format: functional; details: OVCAR-3, 48 h, read-out: Activity
RXF 393 = test: Cytotoxicity against human RXF393 cells assessed as cell growth at 10 uM after 48 hrs by SRB assay relative to control; format: functional; details: RXF 393, 48 h, read-out: Activity
A549 = test: Cytotoxicity against human A549 cells assessed as cell growth at 10 uM after 48 hrs by SRB assay relative to control; format: functional; details: A549, 48 h, read-out: Activity
MCF7 [6] = test: Cytotoxicity against human MCF7 cells assessed as cell growth at 10 uM after 48 hrs by SRB assay relative to control; format: functional; details: MCF7, 48 h, read-out: Activity
COLO 205 = test: Cytotoxicity against human COLO205 cells assessed as cell growth at 10 uM after 48 hrs by SRB assay relative to control; format: functional; details: COLO 205, 48 h, read-out: Activity
MDA-MB-231 [7] = test: Growth inhibition of human MDA-MB-231 cells after 72 hrs by MTT assay; format: functional, cell-based; details: MDA-MB-231, 72 h
HL-60(TB) = test: Cytotoxicity against human HL-60(TB) cells assessed as cell growth at 10 uM after 48 hrs by SRB assay relative to control; format: functional; details: HL-60, 48 h, read-out: Activity
MDA-MB-231 [8] = test: Cytotoxicity against human MDA-MB-231 cells assessed as cell growth at 10 uM after 48 hrs by SRB assay relative to control; format: functional; details: MDA-MB-231, 48 h, read-out: Activity
T47D = test: Cytotoxicity against human T47D cells assessed as cell growth at 10 uM after 48 hrs by SRB assay relative to control; format: functional; details: read-out: Activity
NCI-H23 = test: Cytotoxicity against human NCI-H23 cells assessed as cell growth at 10 uM after 48 hrs by SRB assay relative to control; format: functional; details: NCI-H23, 48 h, read-out: Activity
SW-620 = test: Cytotoxicity against human SW620 cells assessed as cell growth at 10 uM after 48 hrs by SRB assay relative to control; format: functional; details: SW-620, 48 h, read-out: Activity
ACHN = test: Cytotoxicity against human ACHN cells assessed as cell growth at 10 uM after 48 hrs by SRB assay relative to control; format: functional; details: read-out: Activity
MDA-MB-468 = test: Cytotoxicity against human MDA-MB-468 cells assessed as cell growth at 10 uM after 48 hrs by SRB assay relative to control; format: functional; details: MDA-MB-468, 48 h, read-out: Activity
[9] = Cytotoxicity against human EKVX cells assessed as cell growth at 10 uM after 48 hrs by SRB assay relative to control; format: functional; details: read-out: Activity
[10] = Cytotoxicity against human UACC62 cells assessed as cell growth at 10 uM after 48 hrs by SRB assay relative to control; format: functional; details: UACC-62, 48 h, read-out: Activity
MCF7 [11] = test: Growth inhibition of human MCF7 cells after 72 hrs by MTT assay; format: functional, cell-based; details: MCF7, 72 h

SMILES	growth at 10 µM (786-0)	growth at 10 µM (SK-MEL-2)	growth at 10 µM (KM12)	growth at 10 µM (HT-29)	growth at 10 µM [1]	growth at 10 µM (SNB-75)	growth at 10 µM [2]	growth at 10 µM (SK-MEL-5)	growth at 10 µM (NCI-H226)	growth at 10 µM (CCRF-CEM)	growth at 10 µM (M14)	growth at 10 µM (LOX IMVI)	growth at 10 µM (SF-295)	growth at 10 µM (SK-MEL-28)	growth at 10 µM [3]	growth at 10 µM (IGROV-1)	growth at 10 µM [4]	growth at 10 µM (MOLT-4)	growth at 10 µM (SF-539)	growth at 10 µM (A498)	further results
CC(C)=CCC[C@H](C)c1ccc(C)c2c1OCN(CCCCCO)C2	69.5%	92.7%	104%	27.2%	88.8%	85.6%	68.6%	91.7%	98.4%	96%	84.2%	77.6%	110%	115%	76%	90.4%	57%	66.5%	84.5%	75.3%	growth at 10 µM [5]: 99.7%; growth at 10 µM (RXF 393): 90.1%; growth at 10 µM (A549): 82.5%; growth at 10 µM (MCF7 [6]): 88.7%; growth at 10 µM (COLO 205): 90%; pIC50 (MDA-MB-231 [7]): 5.27; growth at 10 µM (HL-60(TB)): 51.7%; growth at 10 µM (MDA-MB-231 [8]): 93.4%; growth at 10 µM (T47D): 88.1%; growth at 10 µM (NCI-H23): 91.3%; growth at 10 µM (SW-620): 94.9%; growth at 10 µM (ACHN): 94.1%; growth at 10 µM (MDA-MB-468): 90%; growth at 10 µM [9]: 102%; growth at 10 µM [10]: 82.8%; pIC50 (MCF7 [11]): 5.16
COc1ccc(CCNCc2c(C)ccc([C@@H](C)CCC=C(C)C)c2O)cc1OC	80.4%	99.9%	89.9%	48.9%	94.8%	66.1%	58%	78%	78.3%	80.1%	91%	73.7%	87.9%	104%	83.4%	68.8%	42.6%	68.2%	88.9%	53.4%	growth at 10 µM [5]: 90.1%; growth at 10 µM (RXF 393): 80.8%; growth at 10 µM (A549): 85.8%; growth at 10 µM (MCF7 [6]): 85.1%; growth at 10 µM (COLO 205): 67.9%; pIC50 (MDA-MB-231 [7]): < 4.30; growth at 10 µM (HL-60(TB)): 85.6%; growth at 10 µM (MDA-MB-231 [8]): 87.7%; growth at 10 µM (T47D): 69.8%; growth at 10 µM (NCI-H23): 74%; growth at 10 µM (SW-620): 84.9%; growth at 10 µM (ACHN): 87.1%; growth at 10 µM (MDA-MB-468): 67.9%; growth at 10 µM [9]: 82.3%; growth at 10 µM [10]: 84.9%; pIC50 (MCF7 [11]): < 4.70
